Reference: ChEMBL document CHEMBL5370556, “Optimization, and biological evaluation of 3-O-β-chacotriosyl betulinic acid amide derivatives as novel small-molecule Omicron” (Eur J Med Chem, 2023)
Calls of active or inactive are those of the source. The calls are words filed in the database; no cut-off is given here.

Key:
[1] = target: Spike glycoprotein/Angiotensin-converting enzyme 2 (Severe acute respiratory syndrome coronavirus 2) (UniProt Q9BYF1+P0DTC2); test: Inhibition of SARS-COV-2 S1 protein/human ACE2 receptor interaction at 20 uM by co-immunoprecipitation assay
[2] = Cytotoxicity against human 293T/ACE2 cells assessed as reduction in cell growth measured after 48 hrs by MTT assay; type: functional
[3] = tested on: SARS-CoV-2; test: Antiviral activity against luciferase-expressing pseudovirus encoding SARS-CoV-2 Omicron expressing S protein infected in human 293T/ACE2 cells assessed as reduction of viral growth measured after 48 hrs by luciferase assay; type: functional, organism-based; settings: Severe acute respiratory syndrome coronavirus 2, 293T/ACE2, 48 h
[4] = Selectivity index, ratio of CC50 for human 293T/ACE2 cells to EC50 for SARS-CoV-2 Omicron; type: toxicity; settings: read-out: Ratio CC50/EC50
[5] = Stability of compound in rat plasma assessed as change in retention time of parent compound incubated for 180 mins by LC-MS/MS analysis; type: ADME, cell-free; settings: 3 h
[6] = tested on: SARS-CoV-2; test: Antiviral activity against luciferase-expressing pseudovirus encoding SARS-CoV-2 Omicron expressing S protein infected in human 293T/ACE2 cells assessed as reduction of viral growth at 0.078 to 10 uM measured after 48 hrs by luciferase assay; type: functional, organism-based; settings: Severe acute respiratory syndrome coronavirus 2, dose 0.078-10 µM
[7] = target: Spike glycoprotein (Severe acute respiratory syndrome coronavirus 2, UniProt P0DTC2); test: Binding affinity to C-terminal 6His-tagged SARS-COV-2 recombinant S protein (Val16 to Arg685 residues) expressed in mammalian expression system assessed as dissociation constant by SPR analysis
[8] = tested on: SARS-CoV-2; test: Antiviral activity against luciferase-expressing pseudovirus encoding SARS-CoV-2 Omicron S/HIV infected in human 293T/ACE2 cells assessed as reduction of viral growth at 10 uM measured after 48 hrs by luciferase assay relative to control; type: functional, Severe acute respiratory syndrome coronavirus 2; parameters: scale not given: the % may be the effect or the level left
[9] = tested on: SARS-CoV-2; test: Antiviral activity against vesicular stomatitis virus glycoprotein expressing pseudovirus encoding SARS-CoV-2 infected in human 293T/ACE2 cells assessed as reduction of viral growth at 0.078 to 10 uM measured after 48 hrs by luciferase assay; type: functional, organism-based; settings: Severe acute respiratory syndrome coronavirus 2, dose 0.078-10 µM
[10] = tested on: SARS-CoV-2; test: Antiviral activity against SARS-COV-2 Omicron expressing S protein and co-expressing EGFP infected in African green monkey Vero E6 cells assessed as inhibition of S protein mediated membrane fusion at 10 uM incubated of 30 mins measured after 24 hrs by inverted fluorescence microscopic analysis; type: functional, organism-based; settings: Severe acute respiratory syndrome coronavirus 2, time 24.5 hrs
[11] = tested on: Severe acute respiratory syndrome coronavirus 2; test: Inhibition of 6-helical bundle formation in SARS-CoV-2 Spike protein HR1/HR2 domains in presence of HR-1P and HR2P at 20 uM incubated for 30 mins by circular dichroism spectroscopy assay
[12] = Metabolic stability in rat liver microsomes assessed as half life measured upto 250 mins by LC-MS/MS analysis; type: ADME, Microsome; settings: 4.167 h
[13] = Metabolic stability in rat liver microsomes assessed as intrinsic clearance measured upto 250 mins by LC-MS/MS analysis; type: ADME, Microsome; settings: 4.167 h

In the case of `C=C(C)[C@@H]1CC[C@]2(C(=O)NCc3ccc4ccccc4c3)CC[C@]3(C)[C@H](CC[C@@H]4[C@@]5(C)CC[C@H](O[C@@H]6O[C@H](CO)[C@@H](O[C@@H]7O[C@@H](C)[C@H](O)[C@@H](O)[C@H]7O)[C@H](O)[C@H]6O[C@@H]6O[C@@H](C)[C@H](O)[C@@H](O)[C@H]6O)C(C)(C)[C@@H]5CC[C@]43C)[C@@H]12`, the inhibition [1] is reported as “inactive”, the CC50 [2] is reported as 167 µM and the EC50 [3] is reported as 2.67 µM. The selectivity ratio [4] was 62.7.

In the case of `C=C(C)[C@@H]1CC[C@]2(C(=O)Nc3ccc4ccccc4c3)CC[C@]3(C)[C@H](CC[C@@H]4[C@@]5(C)CC[C@H](O[C@@H]6O[C@H](CO)[C@@H](O[C@@H]7O[C@@H](C)[C@H](O)[C@@H](O)[C@H]7O)[C@H](O)[C@H]6O[C@@H]6O[C@@H](C)[C@H](O)[C@@H](O)[C@H]6O)C(C)(C)[C@@H]5CC[C@]43C)[C@@H]12`, the inhibition [1] is reported as “inactive”, the Stability [5] is reported as “Stable” and the Activity [6] is reported as “Dose-Dependent Effect”. For the same compound, the CC50 [2] was 60.3 µM, the Kd [7] was 3.26 µM and the Activity [8] was 90%. The Activity [9] was “inactive”, the Activity [10] was “Active” and the inhibition [11] was “inactive”. It also gave an EC50 [3] of 0.82 µM, a selectivity ratio [4] of 73.6 and a t1/2 [12] of 2.8202 h. The CLH [13] was 1.15 µL/min/mg.

With `C=C(C)[C@@H]1CC[C@]2(C(=O)Nc3ccccc3)CC[C@]3(C)[C@H](CC[C@@H]4[C@@]5(C)CC[C@H](O[C@@H]6O[C@H](CO)[C@@H](O[C@@H]7O[C@@H](C)[C@H](O)[C@@H](O)[C@H]7O)[C@H](O)[C@H]6O[C@@H]6O[C@@H](C)[C@H](O)[C@@H](O)[C@H]6O)C(C)(C)[C@@H]5CC[C@]43C)[C@@H]12` the inhibition [1] was “inactive”, the CC50 [2] was > 200 µM and the EC50 [3] was 12.5 µM. For the same compound, the selectivity ratio [4] was > 16.

For `C=C(C)[C@@H]1CC[C@]2(C(=O)NCCc3ccccc3)CC[C@]3(C)[C@H](CC[C@@H]4[C@@]5(C)CC[C@H](O[C@@H]6O[C@H](CO)[C@@H](O[C@@H]7O[C@@H](C)[C@H](O)[C@@H](O)[C@H]7O)[C@H](O)[C@H]6O[C@@H]6O[C@@H](C)[C@H](O)[C@@H](O)[C@H]6O)C(C)(C)[C@@H]5CC[C@]43C)[C@@H]12`, the CC50 [2] was 226 µM, the EC50 [3] was 8.47 µM and the selectivity ratio [4] was 26.7.

With `C=C(C)[C@@H]1CC[C@]2(C(=O)Nc3ccc(-c4ccccc4)cc3)CC[C@]3(C)[C@H](CC[C@@H]4[C@@]5(C)CC[C@H](O[C@@H]6O[C@H](CO)[C@@H](O[C@@H]7O[C@@H](C)[C@H](O)[C@@H](O)[C@H]7O)[C@H](O)[C@H]6O[C@@H]6O[C@@H](C)[C@H](O)[C@@H](O)[C@H]6O)C(C)(C)[C@@H]5CC[C@]43C)[C@@H]12` the CC50 [2] was 100 µM, the EC50 [3] was 8.46 µM and the selectivity ratio [4] was 11.9.

With `C=C(C)[C@@H]1CC[C@]2(C(=O)Nc3ccc(OC)cc3)CC[C@]3(C)[C@H](CC[C@@H]4[C@@]5(C)CC[C@H](O[C@@H]6O[C@H](CO)[C@@H](O[C@@H]7O[C@@H](C)[C@H](O)[C@@H](O)[C@H]7O)[C@H](O)[C@H]6O[C@@H]6O[C@@H](C)[C@H](O)[C@@H](O)[C@H]6O)C(C)(C)[C@@H]5CC[C@]43C)[C@@H]12` the CC50 [2] was 178 µM, the EC50 [3] was 9.44 µM and the selectivity ratio [4] was 18.9.

For `O=C(/C=C/c1ccc(O)c2oc(-c3ccc(O)c(O)c3)cc12)O[C@H](Cc1ccc(O)c(O)c1)C(=O)O`, the CC50 [2] was > 100 µM, the EC50 [3] was 5.63 µM and the selectivity ratio [4] was > 17.8.

`C=C(C)[C@@H]1CC[C@]2(C(=O)NCc3cccs3)CC[C@]3(C)[C@H](CC[C@@H]4[C@@]5(C)CC[C@H](O[C@@H]6O[C@H](CO)[C@@H](O[C@@H]7O[C@@H](C)[C@H](O)[C@@H](O)[C@H]7O)[C@H](O)[C@H]6O[C@@H]6O[C@@H](C)[C@H](O)[C@@H](O)[C@H]6O)C(C)(C)[C@@H]5CC[C@]43C)[C@@H]12` gave a CC50 [2] of 41.9 µM, an EC50 [3] of 6.15 µM and a selectivity ratio [4] of 6.81.

`C=C(C)[C@@H]1CC[C@]2(C(=O)OC)CC[C@]3(C)[C@H](CC[C@@H]4[C@@]5(C)CC[C@H](O[C@@H]6O[C@H](CO)[C@@H](O[C@@H]7O[C@@H](C)[C@H](O)[C@@H](O)[C@H]7O)[C@H](O)[C@H]6O[C@@H]6O[C@@H](C)[C@H](O)[C@@H](O)[C@H]6O)C(C)(C)[C@@H]5CC[C@]43C)[C@@H]12` showed a CC50 [2] of 40.9 µM, an EC50 [3] of 7.04 µM and a selectivity ratio [4] of 5.8.
